Usually tissue uptake stands for the percentage of the injected dose found per gram of tissue.

Series [1] in a line: in vivo. Also noted: species or system mice. Particulars: female, BALB/c, mouse, iv, 3.7 MBq, total radioactivity. How it is done: The 4T1 murine breast cancer cell line was purchased from American Type Culture Collection and grown in RMPI 1640 medium (Invitrogen Corp.) supplemented with 10% (v/v) fetal bovine serum (Invitrogen) at 37° C. with 5% CO2. The 4T1 tumor model was generated by subcutaneous injection of 5×10^6 tumor cells into the left front flank of female normal BALB/c mice (Harlan).
Five-minute static PET images were then acquired at 2 h after injection (n=3/group).

The nature of series [2]: in vivo. Also noted: species or system mice. Particulars: BALB/c, mouse, iv, 370 kBq, total radioactivity, pancreatic uptake. On the procedure:
All mice were sacrificed at 1 h after injection of the tracer. Blood, tumor, and major organs and tissues were collected and wet-weighed. Stomach and intestines were cleaned of their contents in this experiment. The radioactivity in the tissue was measured using a g-counter (Packard). The results were presented as percentage injected dose per gram of tissue (% ID/g). Values were expressed as mean 6 SD (n=4/group).

On to `CSCC[C@H](NC(=O)[C@H](CC(C)C)NC(=O)[C@H](Cc1c[nH]cn1)NC(=O)CNC(=O)[C@@H](NC(=O)[C@H](C)NC(=O)[C@H](Cc1c[nH]c2ccccc12)NC(=O)[C@H](CCC(N)=O)NC(=O)CCCCCNC(=O)CC[C@H](NC(=S)Nc1ccc(C[C@H]2CN(CC(=O)O)CCN(CC(=O)O)CCN2CC(=O)O)cc1)C(=O)NCCCC[C@@H]1NC(=O)[C@@H](Cc2ccc(O)cc2)NC(=O)[C@H](CC(=O)O)NC(=O)CNC(=O)[C@H](CCCNC(=N)N)NC1=O)C(C)C)C(N)=O` [^64Cu-NOTA-RGD-BBN, metal not drawn], for which the tissue uptake at 2 h in “in vivo [1]” was found to be 1.88 ± 0.28 %ID/g. Moreover, the tissue uptake at 1 h in the series “in vivo [2]” worked out at 7.03 ± 1.96 %ID/g.
